Consider one molecule from publication PMC9231138, “Dihydrotanshinone I Enhances Cell Adhesion and Inhibits Cell Migration in Osteosarcoma U−2 OS Cells through CD44 and Chemokine Signaling” (Molecules, 2022).

For assay [1], the system named is U−2 OS cells transfected with CD44 siRNA. Put plainly: Trypsin digestion time, CD44 siRNA knockdown U−2 OS cells. In kind it is cell-based, human. As to conditions: DS−1 7.5 μM for 24 h, 25 °C, control about 120 s. The procedure: Figure 8 CD44 knockdown reduced cell adhesion by shortening cell protrusions. (A) U−2 OS cells transfected with CD44 siRNA and no siRNA were seeded into a 24-well plate treated with 7.5 μM DS−1 for 24 h, and the expression of CD44 was detected by immunofluorescence. (B) CD44 expression of U−2 OS cells was detected by Western blotting after being treated with siRNA for 0, 24, and 36 h. (C) U−2 OS cells were first transfected with/without CD44 siRNA and then treated with DS−1 for 24 h, and its actin morphologies were detected. The representative magnified actin morphologies are listed in (D). (E) The lengths of protrusions in (C) were analyzed by Image J and are shown in a scatterplot graph. The lengths of 20 protrusions from actin in (C) were calculated. Each value is the average of 20 lengths of protrusions, ** p < 0.01, *** p < 0.005. (F) U−2 OS cells were transfected with CD44 siRNA, then treated with 0 and 7.5 μM DS−1 for 24 h and digested with trypsin at 25 °C; the digestion time was recorded by a microscope, and photos were taken every 30 s. The percentage of digested cells is recorded in (G).
Small interfering RNA (siRNA) oligonucleotide was synthesized by Sunya Biotechnology Co., Ltd (Hangzhou, China). The siRNA sequences were as follows: sense (5′–3′), UAUUCCACGUGGAGAAAAAtt; antisense (5′–3′), UUUUUCUCCACGUGGAAUAca. […]

Assay [2] concerns CD44. Put plainly: CD44 expression by immunofluorescence. The assay is classed as cell-based, human. As to conditions: DS−1 2.5, 5.0, and 7.5 µM for 24 h. The procedure:
Figure 7 DS−1 enhanced U−2 OS cells’ adhesion. (A) The morphological changes of U−2 OS cells treated with/without DS−1. Cells were treated with 0 and 7.5 μM DS−1 for 24 h, washed with PBS, and digested with trypsin at 25 °C under a microscope, and photos were taken every 30 s. The percentages of digested cells are recorded in (B). (C) Heatmap of genes related to the adherens’ junction in the control group and DS−1 group. (D) U−2 OS cells were treated with 0 and 7.5 μM DS−1 for 24 h, and the expression of CD44 was observed by immunofluorescence. (E,F) CD44 and GAPDH were analyzed by Western blot and calculated by Image J. (G) The relative expression of 4 kinds of MT-MMPs was analyzed by the transcriptome, as shown in the heatmap. (H) After being treated with DS−1, the relative expression of MT-MMP-1 was verified by RT-PCR. Values are the average of three independent experiments, * p < 0.05, ** p < 0.01, *** p < 0.005.
Coverslip preparation: we cultured U−2 OS cells on sterile glass coverslips in 24-well plates and then treated them with DS−1 at different concentrations.
Fixation and staining: We washed the cells with PBS 3 times and fixed the cells with 200 μL 4% paraformaldehyde/PBS solution at 4 °C for 15 min. We then rinsed 3 times with PBS and permeabilized with 200 μL 0.2% TritonX-100 at room temperature for 30 min. […]

Assay [3] deals with snail. Put plainly: RT-PCR snail mRNA in U−2 OS cells. In kind it is cell-based, human. As to conditions: 24 h. On the procedure: (§1) Total RNA within cells was extracted by the RNAeasy™ Animal Long RNA Isolation Kit with Spin Column (Shanghai, Beyotime); the concentrations and OD260/OD280 and OD230/OD260 values were measured by NanoDrop. Five micrograms of RNA was used for reverse transcription; each sample was diluted to 16 μL, and 4 μL of synthesized premix solution (5×) was added, then the mixtures were placed in a 42 °C water bath for 10 min, then an 80 °C water bath for 10 min to deactivate reverse transcriptase. After reverse transcription, each sample was diluted to 140 μL. PCR amplification was carried out by the ABI700 real-time PCR system, and the amplification reaction was detected with a SYBR probe. After PCR, actin and GAPDH were used as internal references, and the relative standard curve method (2^−ΔΔcT) determined the relative expression of mRNA.

Assay [4] concerns IL6. Put plainly: RT-PCR IL6 mRNA in U−2 OS cells. The assay is classed as cell-based, human. Particulars: 24 h. The procedure:
as §1

The subject of assay [5] is NRK−49F cells. Put plainly: Cell adhesion against trypsin digestion, NRK−49F cells. As to conditions: DS-1 6.25, 12.5 μM for 24 h. In kind it is cell-based, rat.
For assay [6], the system named is CXCL8. Put plainly: RT-PCR CXCL8 mRNA in U−2 OS cells. As to conditions: 24 h. The assay is classed as cell-based, human. On the procedure: as §1

Some results are limits rather than exact numbers.

On to `Cc1cccc2c3c(ccc12)C1=C(C(=O)C3=O)[C@@H](C)CO1` [DS−1, 15,16-Dihydrotanshinone I], for which the “time to total trypsin digestion” value in assay [1] is on record as at most 150 s. Besides, in assay [2], the CD44 expression entry is “significantly increased”. Also, the “snail mRNA, fold of the control group” value in assay [3] (DS−1 5.0 µM) is 0.46 ± 0.05 fold; in assay [3] (DS−1 7.5 µM) it was 0.39 ± 0.03 fold. Also, the “IL6 mRNA, fold” value in assay [4] (DS−1 2.5 µM) is listed as 0.81 ± 0.09 fold; in assay [4] (DS−1 5.0 µM), 0.51 ± 0.07 fold; in assay [4] (DS−1 7.5 µM), 0.42 ± 0.12 fold. Besides, the “cell adhesion on the cell culture plate against trypsin digestion” value in assay [5] is reported as “stronger cell adhesion”. The entries for the “CXCL8 mRNA, fold” value in assay [6] (DS−1 2.5 µM), in assay [6] (DS−1 5.0 µM) and in assay [6] (DS−1 7.5 µM) were 1.49 ± 0.10 fold, 3.34 ± 0.49 fold and 3.71 ± 0.53 fold, respectively.
